This is an account of results in US11180461B2, “Triazoles as Kv3 inhibitors” (AUTIFONY THERAPEUTICS LIMITED, priority 2012, dated 2021).

Assay [1] has as its system Long Evans adult rats with noise-induced tinnitus. The assay can be described thus: Model of tinnitus: gap pre-pulse inhibition of acoustic startle in noise-exposed Long Evans rats. The class given is in vivo, rat. As for the experimental part: Twenty Long Evans adult rats were exposed to a unilateral 116 dB, 16 kHz octave-band noise for one hour in order to induce hearing loss and chronic tinnitus. Ten control rats received a sham noise exposure. Approximately thirty days after the noise exposure hearing thresholds were determined for each animal. Animals were then assessed for the presence of tinnitus using a gap pre-pulse inhibition of acoustic startle paradigm similar to that described by Turner J G, Brozoski T J, Bauer C A, Parrish J L, Myers K, Hughes L F, Caspary D M. Behav Neurosci. 2006 February; 120(1):188-95. In this test, rats were placed on a motion sensor that measured the startle amplitude of the animals in response to a sudden loud sound (115-dB SPL, 20-ms duration) emitted by a loudspeaker located in the ceiling of the cage. It is known that a brief, non-startling sound or “pre-pulse”, prior to the startle sound can reduce the startle amplitude, a phenomenon known as pre-pulse inhibition. In the present study, the pre-pulse is substituted by a 50 ms silence gap in a constant sound 100 ms prior to the startle sound. If the gap is perceived by the animal, then then startle response will be inhibited. However, if the animal has tinnitus, then the tinnitus sound may fill the gap and will startle as if there were no gap (reduced or absent gap pre-pulse inhibition). A drug that reduces the tinnitus will therefore restore gap pre-pulse inhibition.
The pitch of tinnitus is typically in the same range as the hearing loss, which in turn is most marked at the frequencies of the noise trauma. Thus each animal was tested for gap pre-pulse inhibition using gaps in tones of 10, 12.5, 16, 20, and 25 kHz at 60-65 dB SPL. As a control, the animals were also tested with gaps in a broadband sound of the same amplitude. Irrespective of whether the animals have tinnitus, it is unlikely that the tinnitus would fill the gap in the broadband sound, and thus this provides a control for whether the noise-trauma might have affected the gap detection ability of the rats. […]

The subject of assay [2] is chinchilla model of acute noise-induced hearing loss. In words: Chinchilla model of acute noise-induced hearing loss (auditory brainstem response thresholds). The class given is in vivo. To be noted: 60 mg/kg i.p., doses 12 hours apart, 5 pre- and 5 post-noise; 21 days after noise exposure; p<0.01. As for the experimental part:
The otoprotective efficacy of COMPOUND X (i.e. the ability to prevent or reduce the development of permanent acute noise-induced hearing loss) was investigated using a chinchilla model of acute noise-induced hearing loss, as follows:
Subjects comprised male, 3 year old chinchillas (Laniger), 10 animals per group.
Vehicle (20% Captisol®, 0.5% w/v HPMC K15M and 0.5% w/v Tween-80™) was prepared using autoclaved deionized water not more than one week prior to use. A suspension of COMPOUND X in the vehicle at 10 mg/ml was prepared less than 24 hours prior to administration. COMPOUND X was administered at 60 mg/kg via the intraperitoneal route, with doses 12 hours apart. Five injections were given pre-noise exposure and five post-noise exposure. […]
Auditory brainstem responses (ABRs) were collected prior to noise exposure and 21 days after noise exposure. […] Thresholds were measured in response to tone-bursts with 1 ms rise/fall and a 0 ms plateau gated by a Blackman envelope and centred at the frequencies of 2, 4, 6 and 8 kHz, presented at 30/s. […]
The thresholds for ABRs at the four different sound frequencies at day 21 post-noise exposure were compared to the thresholds at baseline, prior to noise exposure in order to determine a threshold shift for each animal. The data were then analysed using a 2-way ANOVA, with treatment and frequency as main factors.

The test system of assay [3] is aged and young Fischer 344 (F344) rats. In words: Model of central auditory processing deficit: auditory gap detection (gap-induced PPI of startle) in F344 rats. The class given is in vivo, rat. As for the experimental part: The ability of COMPOUND X to improve auditory temporal processing in the rat, was examined using an auditory gap detection procedure in aged female Fischer 344 (F344) rats with an average age of 19.5±1.9 months, and in young F344 rats with an average age of 3 months. COMPOUND X, at doses of 30 or 60 mg/kg, or vehicle were administered via the intraperitoneal route on three test occasions using a crossover design, with an interval of at least 7 days between occasions.
Hearing thresholds in each rat were determined under anaesthesia using the auditory brainstem response (ABR) prior to the first drug administration. ABRs were recorded using subcutaneous needle electrodes in a sound attenuated chamber using pure tone bursts as stimuli (5 ms duration, frequency range 2-40 kHz).
The gap detection procedure evaluated the ability of the rats to detect short gaps in background noise by measuring the degree of inhibition that the gap afforded in the animal's startle response to a subsequent loud sound, a phenomenon known as pre-pulse inhibition (PPI). Testing was performed in a sound attenuated chamber. During the testing procedure, the rat was confined to a small wire mesh cage on a motion-sensitive platform. The animal's reflex movements were detected and transduced by a piezoelectric accelerometer. The startle response was evaluated in a 100 ms window beginning at the onset of the startle stimulus (a 110 dB SPL broad-band noise burst of 50 ms duration embedded in a background continuous broad-band noise of 65 dB SPL). Acoustic stimulation was presented via a loudspeaker placed 12 cm above the platform inside the chamber.
PPI of the startle response was induced by gaps of different durations (5-50 ms) preceding the startle stimulus by 70 ms. The degree of PPI was calculated from the startle response amplitude in the presence of the gap relative to the startle response amplitude in the absence of the gap. A two-way ANOVA with the Bonferroni post-hoc test was used to compare the degree of PPI before and after the drug applications.

A further assay concerns Kv3 channels. To be noted: cited from earlier work.

Take `CC[C@@]1(C)NC(=O)N(c2cnc(Oc3ccc(C)c(OC(F)(F)F)c3)nc2)C1=O` [COMPOUND X, (5R)-5-ethyl-5-methyl-3-[2-({4-methyl-3-[(trifluoromethyl)oxy]phenyl}oxy)-5-pyrimidinyl]-2,4-imidazolidinedione]: the gap pre-pulse inhibition entry in assay [1] (animals with evidence of tinnitus, 30 mg/kg i.p. 1-2 hours prior to testing, p<0.05) is recorded as “significantly restored”; in assay [1] (animals with evidence of tinnitus, 60 mg/kg i.p. 1-2 hours prior to testing, p=0.01), “significantly restored”; in assay [1] (control animals or noise-exposed animals without tinnitus), “no effect”. Moreover, the “permanent threshold shift in ABR” value in assay [2] is “significantly reduced”. For the same compound, the “degree of PPI (gap detection)” value is “significantly increased” in assay [3] (aged F344 rats, 30 mg/kg i.p., 30 ms gap duration, p<0.001); “significant improvement” in assay [3] (aged F344 rats, 30 mg/kg i.p., gap durations of 5, 10, and 15 ms); “significantly increased” in assay [3] (aged F344 rats, 60 mg/kg i.p., 30 ms gap duration, p<0.001); “tended to increase the degree of PPI, but the increases were not significant” in assay [3] (young F344 rats, 30 mg/kg i.p.); “tended to increase the degree of PPI, but the increases were not significant” in assay [3] (young F344 rats, 60 mg/kg i.p.).

Regarding `CC[N+](CC)(CC)CC` [Tetraethylammonium (TEA), Tetraethylammonium], the “inhibition of Kv3 channels” value in the assay with Kv3 channels was “inhibit the channels at low millimolar concentrations”.
